Columns and labels:
cytokinin receptor CRE1 [1] = biological target: T1, cytokinin receptor CRE1 (Arabidopsis thaliana, UniProt Q9C5U0, S567G/T1018A); assay: Inhibition of intracellular signaling from plant-derived cytokinin receptor, growth of transformed yeast cell TM182-CRE1; format: cell-based; details: for Relative growth rate (%) in test section of test substance to control section, Transformed cell TM182-CRE1: 30° C., 24 hours, turbidity OD 600
T1 construct: expressed in transfected cells; host or cells: Saccharomyces cerevisiae TM182 (sln1Δ) transformed with p415CYC-CRE1
T1 sequence (Q9C5U0 24-1080 S567G/T1018A): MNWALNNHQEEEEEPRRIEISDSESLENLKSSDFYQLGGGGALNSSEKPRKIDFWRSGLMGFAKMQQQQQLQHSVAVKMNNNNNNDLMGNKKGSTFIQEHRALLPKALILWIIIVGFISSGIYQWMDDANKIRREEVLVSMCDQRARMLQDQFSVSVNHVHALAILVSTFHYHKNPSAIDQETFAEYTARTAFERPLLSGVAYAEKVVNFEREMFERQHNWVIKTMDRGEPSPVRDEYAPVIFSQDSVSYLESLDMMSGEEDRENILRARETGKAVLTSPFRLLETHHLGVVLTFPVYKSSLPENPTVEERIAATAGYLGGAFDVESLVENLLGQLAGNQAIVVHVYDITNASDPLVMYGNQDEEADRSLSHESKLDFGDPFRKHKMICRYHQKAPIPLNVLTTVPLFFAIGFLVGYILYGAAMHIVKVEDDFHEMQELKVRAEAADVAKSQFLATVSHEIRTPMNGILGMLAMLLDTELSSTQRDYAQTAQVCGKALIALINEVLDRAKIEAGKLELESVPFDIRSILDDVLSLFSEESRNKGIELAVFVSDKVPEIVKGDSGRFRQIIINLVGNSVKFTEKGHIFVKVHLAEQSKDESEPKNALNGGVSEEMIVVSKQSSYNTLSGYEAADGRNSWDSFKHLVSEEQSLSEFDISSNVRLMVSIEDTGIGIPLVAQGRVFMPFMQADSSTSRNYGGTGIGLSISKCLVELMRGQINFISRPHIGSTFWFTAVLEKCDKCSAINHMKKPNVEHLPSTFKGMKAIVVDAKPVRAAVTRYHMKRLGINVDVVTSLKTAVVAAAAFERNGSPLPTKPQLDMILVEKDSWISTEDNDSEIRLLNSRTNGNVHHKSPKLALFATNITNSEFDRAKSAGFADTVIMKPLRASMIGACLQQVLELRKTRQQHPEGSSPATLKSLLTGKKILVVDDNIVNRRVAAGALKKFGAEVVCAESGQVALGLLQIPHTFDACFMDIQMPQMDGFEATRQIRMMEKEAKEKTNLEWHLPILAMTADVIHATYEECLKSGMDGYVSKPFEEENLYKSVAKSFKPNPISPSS
In short: (§1)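 Yeast TM182-CRE1 (DOLU+Glu) or control TM182-p415CYC1 (DOLU+Gal), after 18 h preculture at 30° C and dilution to OD600=0.1, exposed to compound at 2 ppm plus trans-zeatin 0.6 ppm for 24 h at 30° C. OD600 vs DMSO control, blank-corrected; inhibition = 100 − relative growth %.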

[2] = system: transformed cell TM182-p415CYC1; assay: Control growth test with transformed yeast cell TM182-p415CYC1 (toxicity to yeast); format: cell-based; details: trans-zeatin 0.6 ppm; chemical substance 2 ppm; 30° C., 24 hours; turbidity OD 600
In short: as §1

rice [3] = assay: Root growth-promoting activity using rice, seed growth pouch (Example 11); format: in vivo, Oriza sativa L. japonica; details: 25° C., 7 days
Procedure: With respect to the chemical substance Ic3-1 and the chemical substance Ic7-1 (which inhibit intracellular signaling from a plant-derived cytokinin receptor of a cell) selected in Example 7, a main root-growth promoting activity was evaluated using rice (Oriza sativa L. japonica). Aqueous solutions of the chemical substance having different concentrations (10 ppm, 25 ppm, each containing 0.1% DMSO) were prepared. A naper towel was impregnated with 17 ml of the chemical solution, wherein the heavy paper was placed in a seed growth pouch for observation of root growth (177 mm×163 mm, manufactured by Daiki Rika Kogyo Co., Ltd.), and 3 rice seeds were sowed on the paper towel. The pouch was put in a plastic container, and then sealed. After culture in the light at 25° C. for 7 days, the length of a main root was measured. An average of 3 repeats was determined and a root growth rate was determined by the following equation. Root growth rate (%)=(Average main root length in chemical substance-treated section)/(Average main root length in control section)×100−100

rice [4] = assay: Root growth-promoting activity by rice seed treatment (Example 12); format: in vivo, Oriza sativa L. japonica; details: rice seeds treated with 10,000 ppm acetone solution; 4 days dark at 30° C. then 35 days greenhouse
Procedure: With respect to the chemical substance Ic3-1 and the chemical substance Ic7-1 (which inhibit intracellular signaling from a plant-derived cytokinin receptor of a cell) selected in Example 7, a main root-growth promoting activity induced by seed treatment was evaluated using rice (Oriza sativa L. japonica). The chemical substance was dissolved in acetone to prepare a 10,000 ppm solution. The acetone chemical substance solution (300 μl) thus prepared was put in an eppendorf tube. Then, 15 seeds were put in the eppendorf tube. The resulting mixture was mixed for about 30 seconds. The seeds thus chemical-treated were spread and dried on a filter paper.
About 820 ml of culture soil was placed in a plastic container (120 mm in length, 97 mm in height) with a hole in the bottom. The chemical-treated seeds were sowed in the plastic container (15 seeds per plastic container). The seeds were cultivated in a dark place at 30° C. for 4 days and then cultivated in a greenhouse for 35 days. Roots of the plant thus cultivated were removed and the soil adhered to the plant was washed away, followed by freeze-drying. Then, the weight of roots after freeze-drying was measured. A test was repeated 3 times for each treatment section, and an average was determined.

[5] = system: hypocotyl of Arabidopsis thaliana; assay: Plant differentiation-promoting activity, adventitious root formation from hypocotyl (Example 13); format: in vivo, Arabidopsis thaliana Columbia; details: agar medium with trans-zeatin 0.01 ppm; all test sections, final concentration 6 ppm, 2 ppm, 0.6 ppm or 0.2 ppm
Procedure: With respect to the chemical substance Ic3-1 and the chemical substance Ic7-1 (which inhibit intracellular signaling from a plant-derived cytokinin receptor of a cell) selected in Example 7, a plant differentiation-promoting activity was evaluated by examining an adventitious root formation activity using an hypocotyl of Arabidopsis thaliana Columbia.
First, an agar medium for sowing Arabidopsis thaliana was prepared. The agar medium contains, as components per 1 liter of an aqueous solution, 1 parcel of mixed salts for Murashige-Scoog plant medium (Wako Pure Chemical Industries, Ltd.) for 1 liter, 10 g of sucrose, 10 ml of an aqueous 5% MES (2-(N-Morpholino)ethanesulfonic acid) solution adjusted to pH 5.7 with potassium hydroxide, 100 mg of inositol, 1 ml of vitamins stock solution (10 g of thiamine hydrochloride, 1 g of pyridoxine hydrochloride, and 1 g of nicotinic acid per 1 liter of an aqueous solution) and 8 g of agar. Then, the agar medium was subjected to autoclave at 120° C. for 20 minutes, dispensed to circular petri dishes, and then solidified.
Seeds of Arabidopsis thaliana (about 25 μl) were put in a 1.5 ml tube. Thereto was added 1 ml of a 10-fold diluted solution of a sodium hypochlorite solution (Nacalai Tesque) with sterilized distilled water. The seed were sterilized while stirring for about 1 minute with a tube mixer (TOMY, MT-360, MIXING SPEED10). […]

Arabidopsis thaliana [6] = assay: Root growth-promoting activity test (Example 9); format: in vivo; details: test final concentration 0.625 ppm (concentration with highest root growth rate); main root length vs control section, 22° C., 10 days
In short: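 Arabidopsis seeds (10–20 per tube) were grown in Enshi standard medium containing the compound from DMSO at 0.001–10 ppm final, at 22° C in light for 10 days. Main root length was averaged over eight repeats and expressed as % of the control.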

cytokinin receptor CRE1 [7] = biological target: T1, cytokinin receptor CRE1; format: binding; details: radiolabel 2IP 10 nM; test substance 10 μM
Procedure: As the cytokinin labeled with a radioisotope of hydrogen, tritium so as to become highly radioactive, [3H]N-6-(isopent-2-enyl)Adenine manufactured by Amersham Biosciences (hereinafter, referred to as radiolabel 2IP) was used.
First, 100 μg of the membrane protein fraction of the transformed cell TM182-p415CYC1, a radiolabel 2IP dilution at a predetermined concentration with a phosphate buffer and 1 μl of a test substance dilution at a predetermined concentration with DMSO were mixed in a phosphate buffer to prepare 100 μl of a reaction liquid. Next, the reaction liquid was allowed to stand in ice for 1 hour and then filtered with a glass filter GF/B (manufactured by Whatman) to collect a membrane protein fraction of the transformed cell TM182-p425GPD-CRE1. The glass filter was immersed in a liquid scintillation cocktail Ultima Gold (manufactured by PerkinElmer Co., Ltd.), and radioactivity was measured by a liquid scintillation counter. […] In order to eliminate influence of radioactivity due to nonspecific binding of the radiolabel 2IP, a value of radioactivity obtained in the test using the membrane protein fraction of the transformed cell TM182-p425GPD was subtracted from a value of radioactivity obtained in the test using the membrane protein fraction of the transformed cell TM182-p425GPD-CRE1.

Arabidopsis thaliana [8] = assay: Root growth-promoting activity test (Example 22); format: in vivo; details: test final concentration 0.625 ppm (highest root growth rate); main root length vs control section, 22° C., 10 days
In short: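 Arabidopsis thaliana seeds (10-20 per tube) grown in sterile Enshi standard medium containing compound at 0.001 ppm to 10 ppm final (DMSO vehicle), 22 °C, 10 days in light. Main root length measured, eight repeats averaged; root growth rate (%) = treated/control mean main root length ×100.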

[9] = trans-zeatin 0.6 ppm, chemical substance 2 ppm

Row | SMILES | inhibition at 2 ppm (cytokinin receptor CRE1 [1]; read-out: Activity (%) of test substance for inhibiting intracellular signaling from plant-derived cytokinin receptor of cell) | Relative growth rate (%) in test section of test substance to control section, Transformed cell TM182-CRE1 (cytokinin receptor CRE1 [1]; [9]) | Relative growth rate (%) in test section of test substance to control section, Transformed cell TM182-p415CYC1 [2] | main root growth increase relative to the control section (rice [3]; 10 ppm) | main root growth increase relative to the control section (rice [3]; 25 ppm) | dry weight of roots per plant, % of the control section (rice [4]) | adventitious root formation from the hypocotyl portion [5] | melting point | Activity (%) of test substance for inhibiting intracellular signaling from plant-derived cytokinin receptor of cell (cytokinin receptor CRE1 [1]; trans-zeatin 0.6 ppm, chemical substance 2 ppm, = 100 − relative growth rate of TM182-CRE1) | Root growth-promoting activity (root growth rate) (Arabidopsis thaliana [6]) | radioactivity of bound radiolabel 2IP compared with DMSO only or abscisic acid (cytokinin receptor CRE1 [7]) | Root growth-promoting activity (root growth rate) (Arabidopsis thaliana [8])
1 | OCCNc1nc(-c2ccccc2)c2cc(Cl)ccc2n1 [Ic3-1, 6-chloro-2-(2-hydroxyethylamino)-4-phenylquinazoline] | 94.6% | 5.4% | 114.1% | 17% | 20% | 119% | adventitious roots were formed | 137.9 °C | – | – | – | –
2 | OCCCCNc1nc(-c2ccccc2)c2cc(Cl)ccc2n1 [Ic3-4] | – | 1.4% | 106.4% | – | – | – | – | – | 98.6% | 129.5% | the radioactivity was decreased | 129.5%
3 | C/C(=C\CNc1ncnc2nc[nH]c12)CO [trans-zeatin, reference compound] | – | – | – | – | – | – | – | – | – | – | the radioactivity was decreased | –

Source: US8722580B2, “Agent for inhibiting cytokinin signaling” (Sumitomo Chemical Company, Limited, priority 2006, dated 2014)
